Activity calls are given as the source filed them. The calls are words filed in the database; no cut-off is given here.
Tests used:
[1] = target: T1, Prostaglandin G/H synthase 2 (Homo sapiens, UniProt P35354); experiment: Inhibition of human COX2 assessed as fluorescence by microplate reader
T1 sequence (P35354 whole entry): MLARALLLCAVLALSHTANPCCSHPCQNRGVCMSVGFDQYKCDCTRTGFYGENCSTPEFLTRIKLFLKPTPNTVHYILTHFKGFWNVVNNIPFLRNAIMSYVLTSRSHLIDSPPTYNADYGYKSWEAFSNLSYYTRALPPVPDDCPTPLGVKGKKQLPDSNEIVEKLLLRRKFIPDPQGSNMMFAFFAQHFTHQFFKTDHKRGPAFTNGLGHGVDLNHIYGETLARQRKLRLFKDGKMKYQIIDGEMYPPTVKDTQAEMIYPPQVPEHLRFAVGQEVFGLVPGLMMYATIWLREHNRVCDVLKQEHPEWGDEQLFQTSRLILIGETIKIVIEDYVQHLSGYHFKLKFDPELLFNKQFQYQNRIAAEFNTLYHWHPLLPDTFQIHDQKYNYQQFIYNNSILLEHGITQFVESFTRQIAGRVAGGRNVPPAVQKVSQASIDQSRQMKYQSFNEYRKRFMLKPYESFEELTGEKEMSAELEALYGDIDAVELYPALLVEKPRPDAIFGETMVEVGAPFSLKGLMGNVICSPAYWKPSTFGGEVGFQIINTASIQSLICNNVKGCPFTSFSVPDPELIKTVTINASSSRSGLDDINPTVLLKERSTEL

BV-2 = experiment: Inhibition of MMP9 production in mouse BV-2 cells co-cultured with rat C6 glioma cells at 2 uM incubated for 24 hrs by Western blot analysis; type: functional, cell-based
U-251 [2] = experiment: Antiproliferative activity against human U-251 cells assessed as growth inhibition incubated for 72 hrs by CCK-8 assay; type: functional, cell-based; details: U-251, 72 h
[3] = target: Signal transducer and activator of transcription 3 (Homo sapiens) (UniProt P40763); experiment: Inhibition of STAT3 nuclear translocation in human U-87 MG cells incubated for 24 hrs by Hoechst staining based fluorescence confocal imaging analysis; type: cell-based
[4] = target: Tyrosine-protein kinase JAK2 (Homo sapiens) (UniProt O60674); experiment: Inhibition JAK2 phosphorylation in human U-251 cells incubated up to 8 hrs by Western blot analysis; type: cell-based; details: time hrs <=8
[5] = target: Tyrosine-protein kinase JAK2 (Homo sapiens) (UniProt O60674); experiment: Inhibition JAK2 phosphorylation in human U-87 MG cells incubated up to 8 hrs by Western blot analysis; type: cell-based; details: time hrs <=8
[6] = target: Signal transducer and activator of transcription 3 (Homo sapiens) (UniProt P40763); experiment: Inhibition STAT3 phosphorylation in human U-251 cells incubated up to 8 hrs by Western blot analysis; type: cell-based; details: time hrs <=8
U-87 MG [7] = experiment: Antiproliferative activity against human U-87 MG cells assessed as decrease in proliferation at 4 uM measured after 24 hrs by EdU assay relative to control; type: functional, cell-based; details: U-87MG ATCC
U-251 [8] = experiment: Cell cycle arrest in human U-251 cells assessed as accumulation at G2/M phase at 8 uM incubated for 48 hrs by PI staining based flow cytometry assay (reference value: 11.9%); type: functional
U-251 [9] = experiment: Induction of apoptosis in human U-251 cells assessed as viable cells at 2 uM incubated for 48 hrs by […] double staining based flow cytometry assay (reference value: 96.6%); type: functional; details: read-out: Activity
U-251 [10] = experiment: Induction of apoptosis in human U-251 cells assessed as late apoptotic cells at 2 uM incubated for 48 hrs by […] double staining based flow cytometry assay (reference value: 1.39%); type: functional
U-251 [11] = experiment: Induction of apoptosis in human U-251 cells assessed as necrotic cells at 2 uM incubated for 48 hrs by […] double staining based flow cytometry assay (reference value: 1.32%); type: functional
U-251 [12] = experiment: Induction of apoptosis in human U-251 cells assessed as late apoptotic cells at 4 uM incubated for 48 hrs by […] double staining based flow cytometry assay (reference value: 1.39%); type: functional
U-251 [13] = experiment: Induction of apoptosis in human U-251 cells assessed as viable cells at 8 uM incubated for 48 hrs by […] double staining based flow cytometry assay (reference value: 96.6%); type: functional; details: read-out: Activity
U-87 MG [14] = experiment: Induction of apoptosis in human U-87 MG cells assessed as late apoptotic cells at 2 uM incubated for 48 hrs by […] double staining based flow cytometry assay (reference value: 0.61%); type: functional, U-87MG ATCC
U-87 MG [15] = experiment: Induction of apoptosis in human U-87 MG cells assessed as viable cells at 4 uM incubated for 48 hrs by Annexin VIM double staining based flow cytometry assay (reference value: 97.8%); type: functional, U-87MG ATCC; details: read-out: Activity
U-87 MG [16] = experiment: Induction of apoptosis in human U-87 MG cells assessed as early apoptotic cells at 4 uM incubated for 48 hrs by […] double staining based flow cytometry assay (reference value: 0.63%); type: functional, U-87MG ATCC
U-87 MG [17] = experiment: Induction of apoptosis in human U-87 MG cells assessed as decrease in Bcl2/Bax ratio at 2 to 4 uM incubated for 48 hrs by Western blot analysis relative to control; type: functional, cell-based; details: U-87MG ATCC, dose 2-4 µM
U-251 [18] = experiment: Induction of apoptosis in human U-251 cells assessed as increase in cytochrome c release at 1 to 4 uM incubated for 48 hrs by Western blot analysis relative to control; type: functional, cell-based; details: dose 1-4 µM
U-87 MG [19] = experiment: Induction of apoptosis in human U-87 MG cells assessed as increase in ROS generation at 1 to 4 uM incubated for 48 hrs by Western blot analysis relative to control; type: functional, cell-based; details: U-87MG ATCC, dose 1-4 µM
U-251 [20] = experiment: Anti-invasion activity against human U-251 cells assessed as inhibition of invasion incubated for 24 hrs by matrigel trans well plate assay; type: functional, cell-based; details: dose 1-4 µM
U-87 MG [21] = experiment: Anti-invasion activity against human U-87 MG cells assessed as inhibition of invasion incubated for 24 hrs by matrigel trans well plate assay; type: functional, cell-based; details: U-87MG ATCC
U-87MG ATCC = experiment: Reduction in MMP9 expression in human U-87 MG cells incubated for 24 hrs by Western blot analysis; type: functional, cell-based; details: dose 1-4 µM
[22] = Acute toxicity in Kunming mouse assessed mortality at 1000 mg/kg, ip measured for 14 days; type: organism-based; details: in vivo, 336 h, time 14 day
[23] = AUC (0 to t) in Sprague-Dawley rat at 60 mg/kg, ip measured up to 24 hrs by LC-MS analysis; type: ADME, organism-based; set-up: route intraperitoneal, dose 60 mg/kg, time <=24; details: in vivo
[24] = Plasma concentration in Sprague-Dawley rat at 60 mg/kg, ip measured up to 24 hrs by LC-MS analysis; type: ADME, organism-based
[25] = Toxicity in rat C6 cells inoculated orthotopic Sprague-Dawley rat model at 50 mg/kg, ip twice a day administered for 25 days; type: organism-based; details: in vivo, 600 h, time 25 day
C6 [26] = experiment: Antitumor activity against rat C6 cells inoculated orthotopic Sprague-Dawley rat model assessed as reduction tumor weight at 50 mg/kg, ip twice a day treated 3 days after tumor cell injection measured for 13 days after tumor implantation; type: functional, organism-based; details: time 3.0 day
C6 [27] = experiment: Antitumor activity against rat C6 cells inoculated orthotopic Sprague-Dawley rat model assessed as increase in E-cadherin in tumor tissue at 50 mg/kg, ip twice a day treated 3 days after tumor cell injection measured for 13 days after tumor implantation by Western blot analysis; type: functional, organism-based; details: time 3.0 day
C6 [28] = experiment: Anxiolytic activity in rat C6 cells inoculated orthotopic Sprague-Dawley rat model assessed as suppression of MMP9 expression in tumor tissue at 50 mg/kg, ip twice a day administered for 13 days of tumor implantation by immunohistochemical staining analysis; type: functional, organism-based; details: time 13.0 day

Sequence of Tyrosine-protein kinase JAK2 (Homo sapiens) (O60674 whole entry): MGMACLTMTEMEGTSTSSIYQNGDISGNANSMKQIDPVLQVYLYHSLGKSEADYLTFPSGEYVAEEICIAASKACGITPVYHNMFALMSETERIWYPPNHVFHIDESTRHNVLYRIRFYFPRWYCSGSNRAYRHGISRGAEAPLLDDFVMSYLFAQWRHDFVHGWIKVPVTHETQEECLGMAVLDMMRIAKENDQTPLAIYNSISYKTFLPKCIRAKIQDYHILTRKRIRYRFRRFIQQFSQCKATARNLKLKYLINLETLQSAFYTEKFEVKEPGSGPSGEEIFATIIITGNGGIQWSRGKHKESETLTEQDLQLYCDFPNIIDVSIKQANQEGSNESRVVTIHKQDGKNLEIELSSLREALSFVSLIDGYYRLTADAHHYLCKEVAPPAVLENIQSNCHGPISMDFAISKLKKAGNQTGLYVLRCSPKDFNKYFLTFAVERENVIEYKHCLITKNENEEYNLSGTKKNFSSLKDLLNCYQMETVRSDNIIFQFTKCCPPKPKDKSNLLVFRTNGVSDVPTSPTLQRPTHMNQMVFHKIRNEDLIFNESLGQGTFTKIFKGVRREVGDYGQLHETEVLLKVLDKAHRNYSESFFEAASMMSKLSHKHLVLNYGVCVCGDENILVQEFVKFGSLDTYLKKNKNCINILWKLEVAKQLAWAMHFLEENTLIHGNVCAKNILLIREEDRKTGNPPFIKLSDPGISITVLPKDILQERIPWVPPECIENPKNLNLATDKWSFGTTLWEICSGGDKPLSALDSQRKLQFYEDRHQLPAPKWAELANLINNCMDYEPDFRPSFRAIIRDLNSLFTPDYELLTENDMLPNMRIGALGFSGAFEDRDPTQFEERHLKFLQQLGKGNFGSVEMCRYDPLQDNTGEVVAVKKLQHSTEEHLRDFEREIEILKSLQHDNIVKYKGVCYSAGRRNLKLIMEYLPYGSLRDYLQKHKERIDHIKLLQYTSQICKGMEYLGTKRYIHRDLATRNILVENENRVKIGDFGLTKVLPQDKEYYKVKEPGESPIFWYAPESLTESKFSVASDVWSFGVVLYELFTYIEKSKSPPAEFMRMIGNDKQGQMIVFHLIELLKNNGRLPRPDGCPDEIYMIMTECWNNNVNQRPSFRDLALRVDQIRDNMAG
Sequence of Signal transducer and activator of transcription 3 (Homo sapiens) (P40763 whole entry): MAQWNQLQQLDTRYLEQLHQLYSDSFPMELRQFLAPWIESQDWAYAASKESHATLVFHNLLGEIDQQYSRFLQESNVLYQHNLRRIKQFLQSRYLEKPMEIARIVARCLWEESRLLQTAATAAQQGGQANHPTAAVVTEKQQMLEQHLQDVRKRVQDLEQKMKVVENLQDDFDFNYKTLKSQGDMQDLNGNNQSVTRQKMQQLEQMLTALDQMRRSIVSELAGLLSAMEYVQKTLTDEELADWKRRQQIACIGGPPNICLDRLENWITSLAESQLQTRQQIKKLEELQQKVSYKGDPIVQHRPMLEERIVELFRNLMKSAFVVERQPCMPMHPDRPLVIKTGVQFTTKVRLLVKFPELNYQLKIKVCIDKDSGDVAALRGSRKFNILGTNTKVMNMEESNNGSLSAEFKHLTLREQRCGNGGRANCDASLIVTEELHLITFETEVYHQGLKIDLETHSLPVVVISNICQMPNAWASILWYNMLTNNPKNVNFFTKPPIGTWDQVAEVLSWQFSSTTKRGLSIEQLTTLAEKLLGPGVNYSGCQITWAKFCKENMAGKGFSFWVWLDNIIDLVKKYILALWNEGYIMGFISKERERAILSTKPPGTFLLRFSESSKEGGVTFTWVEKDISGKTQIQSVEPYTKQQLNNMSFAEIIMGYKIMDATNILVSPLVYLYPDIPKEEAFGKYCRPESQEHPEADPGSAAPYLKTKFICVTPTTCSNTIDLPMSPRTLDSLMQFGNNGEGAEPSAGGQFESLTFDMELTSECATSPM

For `COc1cc(Nc2ccccc2C(=O)NCCc2c[nH]c3ccccc23)cc(OC)c1OC`, the IC50 [1] was 8.29 µM, the inhibition (BV-2) was “Active” and the IC50 (U-251 [2]) was 1.87 µM. The inhibition [3] was “Active”, the inhibition [4] was “Active” and the inhibition [5] was “Active”. For the same compound, the inhibition [6] was “Active”, the Activity (U-87 MG [7]) was “Active” and the Activity (U-251 [8]) was 63.7%. It also gave a viability at 2 µM (U-251 [9]) of 73.4%, an Activity (U-251 [10]) of 17.4% and an Activity (U-251 [11]) of 4.28%. The Activity (U-251 [12]) was 21.8%, the viability at 8 µM (U-251 [13]) was 56.6% and the Activity (U-87 MG [14]) was 1.53%. The viability at 4 µM (U-87 MG [15]) was 88.5%, the Activity (U-87 MG [16]) was 6.09% and the Activity (U-87 MG [17]) was “Active”. For the same compound, the Activity (U-251 [18]) was “Active”, the Activity (U-87 MG [19]) was “Active” and the Activity (U-251 [20]) was “Active”. For the same compound, the Activity (U-87 MG [21]) was “Active”, the Activity (U-87MG ATCC) was “Dose-Dependent Effect” and the Activity [22] was “Non-Toxic”. The AUC(0-t) at 24 h [23] was 7330 ng·h/mL, the concentration at 24 h [24] was 200 ng/mL and the Activity [25] was “Non-Toxic”. For the same compound, the Activity (C6 [26]) was “Active”, the Activity (C6 [27]) was “Active” and the Activity (C6 [28]) was “Active”.

— ChEMBL document CHEMBL4825684, “Design, synthesis and biological evaluation of N-anthraniloyl tryptamine derivatives as pleiotropic molecules for the therapy of malignant glioma” (Eur J Med Chem, 2021)
